Experimental data as given in patent US5985926A, “Method for inhibiting intracellular viral replication” (Cell Therapeutics, Inc., priority 1997, dated 1999).
Read-outs that look alike come from different tables or passages of the source.

Columns and labels:
[1] = test system: PA formation in EB293 cells; assay: PA and lyso (bis) PA species in TNF-stimulated EB293 cells (HPLC peaks D and A5); format: cell-based, human; settings: CT2576 10 μM, TNF 20 ng/ml
Excerpt: One must first quantitatively and qualitatively separate PAs from the other lipids found in serum by a chemical extraction of lipids and high performance liquid chromatography (HPLC) to separate and detect PAs. Chemical extraction can be accomplished, for example, by the method of Bligh et al. (Canadian J. Biochem. Physiol. 37:911-917, 1959) or that of Folch et al. (J. Biol. Chem. 226:497-509, 1957). Briefly, the method of Bligh et al. involves an organic extraction of lipids from biological tissue homogenates or fluids. One volume of sample and three volumes of methanol:chloroform (2:1) are vigorously shaken for 2 min. One volume of chloroform is added and then shaken vigorously for 30 sec. One volume of water is added and then shaken vigorously for 30 sec. The mixture is filtered and the upper aqueous layer is discarded. The lower organic layer contains a mixture of lipid classes. The method of Folch et al. involves the extraction of lipids from biological tissue homogenates or body fluids. One volume of sample plus 20 volumes of chloroform:methanol (2:1) are vigorously shaken for 2 min. The mixture is filtered and an amount of 0.1 N KCl equal to 20% of the extraction mixture volume is added and the mixture is shaken vigorously for 2 min. The aqueous and organic phases are allowed to separate. The upper aqueous layer is discarded. […]

[2] = test system: HIV-LTR promoter in 293tat cells; assay: HIV-LTR directed AP reporter expression in 293tat cells activated by tat and TNF-α; format: cell-based; settings: Homo sapiens
Protocol: (§1) 293tat cells, a cell line stably transfected with the expression plasmids pHIV.AP and pHIV.tat, were plated onto 96-well microtiter plates at 2000 cells per well. The media were changed the next day and CT2576 was added at the indicated concentrations to the fresh media with or without TNF-α (20 ng/ml). 2 μl of medium from each well was used for AP assay 24 hr later. After culture media were withdrawn for AP assay, cytotoxicity was measured for the same cell cultures using an indicator dye, Alamar Blue™, that would change color in response to the reduction potential of cell medium due to cell growth. The left y-axis refers to the absorbance value of the reduced form of Alamar Blue™ at 570 nm with the background absorbance at 600 nm from the oxidized form of Alamar Blue™ subtracted. Each data point represents the mean of triplicate samples with error bar indicating the standard deviation of the mean.
Stable cell lines 293tar, 293tat and 293tat2 were generated by transfections using conditions described in (Tate et al., FASEB J. 4:227-231, 1990) with the plasmid pHIV.AP alone or along with either pHIV.tat or pSV2tat72, respectively. The assay of HIV-1 p24 antigen expression in the chronically HIV-1-infected promonocytic line U1 after 4 days and in acutely infected peripheral blood lymphocytes (PBL) after 7 days were described (Peterson et al., J. Clin. Invest. 89:574-580, 1992, and Brighty et al., Proc Natl. Acad. Sci. USA 88:7802-7805, 1991).
This example illustrates that CT2576 inhibited TNF-α and tat-activated HIV-LTR promoter directed expression in 293tat cells. Cell activation signals generated by interaction of ligands with receptors are eventually converted to changes in the pattern of gene expression. A reporter gene expression system under the control of the HIV-LTR promoter was set up to investigate compounds that inhibit signaling pathway for HIV activation in infected cells. […]

293tat cells = assay: Viability of 293tat cells, Alamar Blue; format: cell-based, human
Protocol: as §1
The effect of CT2576 on HIV promoter activity in 293tat cells, with the HIV.AP construct cotransfected with pHIV.tat, is shown in FIG. 15. CT2576 inhibited AP reporter gene expression by 50% with an inhibition constant (IC50) in the range of 10 μM with or without TNF-α induction. The inhibition of AP expression is the result of two events: a decrease in AP expression and a decrease in tat expression and therefore lower tat protein levels for transactivation. […]

In the case of `CCCCCCCCNCC(O)CCCCCCCCCn1c(=O)c2c(ncn2C)n(C)c1=O` (stereo not shown) [CT2576, 1-(11-octylamino-10-hydroxyundecyl)-3,7-dimethylxanthine], the “PA mass (peak D), TNF-stimulated EB293 cells” value [1] is reported as “reduced PA mass across all time points measured”, the “lyso (bis) PA species (peak A5), TNF-stimulated EB293 cells” value [1] is reported as “increased lyso (bis) PA species across all time points” and the inhibition at 12 µM ([2]; 24 h, 293tat cells, CT2576 12 μM, after TNF-α or IL-1β induction, read-out: decrease in AP activity after TNF-α or IL-1β induction) is reported as 83 to 90%. The IC50 ([2]; read-out: IC50, TNF-α induced HIV-LTR directed AP expression, 293tat cells, with TNF-α (20 ng/ml)) was ~10 µM, the IC50 ([2]; read-out: IC50, tat-dependent HIV-LTR directed AP expression, 293tat cells, tat activation, without TNF-α) was ~10 µM and the “cytotoxic concentration (not cytotoxic at concentrations up to), 293tat cells” value (293tat cells; Alamar Blue) was > 32 µM. The “cytotoxic effect, 293tat cells” value (293tat cells; in words) was “minimal cytotoxic effect”.
